Measurements: patent US20250282779A1, “SUBSTITUTED 5,6,7,8-TETRAHYDROPYRIDO[2,3-D]PYRIMIDINE-2,4-DIONES FOR TREATING CARDIAC DISEASES” (MYOKARDIA, INC., priority 2018, published 2025)
pIC50: −log10 of the molar value.

Legend:
bovine cardiac myosin [1] = biological target: T1, bovine cardiac myosin (Bos taurus (Bovine), UniProt Q9BE39); assay: Myosin inhibition assay (bcMF pCa 6 IC50); assay type: biochemical; conditions: bovine cardiac myofibrils, calcium giving 50% activation
Procedure: Myosin inhibition assay (bcMF pCa 6IC50 (μM))
Small molecule agents were assessed for their ability to inhibit the enzymatic activity of bovine cardiac myosin using a biochemical assay that couples the release of ADP (adenosine diphosphate) from cardiac myosin to an enzymatic coupling system consisting of pyruvate kinase and lactate dehydrogenase (PK/LDH) and monitoring the absorbance decrease of NADH (at 340 nm) as a function of time. PK converts ADP to ATP (adenosine triphosphate) by converting PEP (phosphoenolpyruvate) to pyruvate. Pyruvate is then converted to lactate by LDH by converting NADH (nicotinamide adenine dinucleotide) to NAD (oxidized nicotinamide adenine dinucleotide). The source of cardiac myosin was from bovine heart in the form of skinned myofibrils. Prior to testing small molecule agents, the bovine myofibrils were assessed for their calcium responsiveness and the calcium concentration that achieves a 50% activation of the myofibril system was chosen as the final condition for assessing the inhibitory activity of the small molecule agents. All enzymatic activity was measured in a buffered solution containing 12 mM PIPES (piperazine-N,N′-bis(2-ethanesulfonic acid), 2 mM magnesium chloride at pH 6.8 (PM12 buffer). Final assay conditions were 1 mg/mL of bovine cardiac myofibrils, 0.4 mM PK/LDH, 50 uM ATP, 0.1 mg/mL BSA (bovine serum albumin), 10 ppm antifoam, 2 mM BME, 0.5 mM NADH, and 1.5 mM PEP at the desired free calcium concentration required to achieve 50% activation of the myofibrils.
A dilution series of compound was created in DMSO such that the final desired concentration of compound would be achieved in a volume of 30 μL with a fixed DMSO concentration of 3.3% (v/v). Typically 1 μL of the dilution series were added to 384 well plate to achieve a 10 point dose response. Following the addition of 14 μL of a solution containing bovine cardiac myofibrils, PK/LDH and a solution of calcium (that achieved 50% activation), the enzymatic reaction was started with the addition of 15 μL of a solution containing ATP, PEP and NADH. The reaction progress was followed in a PerkinElmer Envision plate reader at ambient temperature using clear bottom plates. The plate reader was configured to read absorbance at 340 nm in kinetics mode for 15 minutes. Data were recorded as the slope of the absorbance response to time. The slopes of the absorbance response as a function of time were normalized to slopes on the plate containing DMSO. This normalized rate was then plotted as a function of small molecule concentration and the data was fitted to a four-parameter fit using EXCEL XLfit. The IC50 is the concentration at which fifty percent of the total response is inhibited.

[2] = Reactive metabolite identification (glutathione adducts); assay type: in vitro ADME, human
Procedure: Reactive Metabolite Identification
In vitro determination of reactive metabolite formation for small molecules by detection of glutathione adducts formed in vitro in incubations with human liver microsomes fortified with NADPH and glutathione.
Methods: The metabolism of small molecules (30 μM) for glutathione adduct formation was assessed in incubations (200 μL volume, […], 60 min incubation time) with liver microsomes from human (1 mg/mL protein) conducted in potassium phosphate buffer (0.1 M, pH 7.4) for 1 h at 37° C. in a 96-well plate (2 mL well volume) and were performed in the absence of NADPH (used as a negative control) and in the presence of NADPH (1 mM) and glutathione (GSH, 10 mM). Incubations with liver microsomes were performed in a shaking water bath incubator with slow horizontal shaking (30 rpm). To obtain 30 μM incubation concentration of a compound, a 3 mM substrate stock solution in DMSO was used. Final incubation mixtures contained 148 μL of potassium phosphate buffer, 10 μL of liver microsome solution (20 mg protein/mL), 2 μL of the 3 mM substrate solution and where incubations were initiated by the addition of 40 μL of NADPH solution (5 mM dissolved in potassium phosphate buffer). Non-NADPH containing incubations were supplemented with 40 μL of potassium phosphate buffer. Post-incubation, reactions were terminated by adding an equal volume of acetonitrile containing 20 nM carbamazepine internal standard and 3% formic acid. Quenched samples then were centrifuged (4,600 rpm, 4° C., 10-min) after which the supernatants were transferred to a 96-well LC-MS sample analysis plate and diluted with one volume equivalent of HPLC-grade water, and then heat sealed with aluminum foil prior to analysis by liquid chromatography/mass spectrometry (LC-MS/MS).
Analyte identification: The LC-MS/MS detection (with in-line UV detection at 280 nm) of test compounds and potential GSH-adducts was focused on extracting selected ion chromatographic profiles using the protonated molecular ion MH^+ m/z for parent to 4 decimal places, and corresponding protonated molecular ions of predicted GSH-adduct metabolites (m/z MH^+ parent+305.0681 amu) using Xcalibur software (version 2.1.0, Thermo Fisher Scientific, Waltham, MA). Relative GSH-adduct abundance in vitro in liver microsome extracts was assessed using the LC/UV absorbance at 280 nm peak area ratio obtained by using Xcalibur software (version 2.1.0) between the detected GSH-adducts from NADPH- and GSH-fortified incubation extracts and the corresponding LC/UV peak area of the parent compound from minus NADPH containing incubation extracts. The extent of GSH-adduct formation was determined by LC-MS/MS analysis with in-line LC-UV detection at 280 nm by dividing the glutathione-adduct LC/UV peak area by the LC/UV peak area of the corresponding parent HCM-1 NG analog determined from analysis of control (-NAPDH, -GSH) incubations extracts.
Materials: Pooled male human (HLM, 50 donors) liver microsomes were obtained from Bioreclamation IVT (Baltimore, MD). Glutathione (GSH) and NADPH were purchased from Sigma Chemical Co. (St. Louis, MO). All solvents used for liquid chromatography-tandem mass spectrometry (LC-MS/MS) analyses were of chromatographic grade.
LC-MS Conditions: Extracts from incubations with liver microsomes and hepatocytes were characterized by LC-MS and LC-MS/MS on a Thermo Electron LTQ Orbitrap XL mass spectrometer coupled with a Dionex UltiMate 3000 UHPLC containing in-line diode array detection and an OAS-3300TXRS Autosampler (40 μL injection volume). Electrospray ionization (ESI) was employed in the positive ion mode with the needle potential held at 5.01 kV, a sheath flow rate of 35.02, aux flow rate of 9.99, a current of 2.6 uA, a capillary temperature of 325° C., and a capillary voltage of 15.99. Vacuum conditions used were an ion gauge pressure used was 2.33×10^−5 Torr and a convection gauge pressure of 0.90 Torr. […]

bovine cardiac myosin [3] = biological target: T1, bovine cardiac myosin; assay: Myosin inhibition assay (bcMF serum pCa 6 IC50), 10% human serum; assay type: biochemical; conditions: in the presence of 10% human serum
Text: Myosin Inhibition Assay (bcMF Serum pCa 6 IC50 (μM))
Inhibition of the enzymatic activity of bovine cardiac myosin associated with the release of ADP (adenosine diphosphate) at the calcium concentrate that achieves a 50% activation of the bovine cardiac myofibril system in the presence of 10% human serum. The procedure was the same as that bovin cardiac myosin inhibition assay (bcMF pCa 6 IC50 (μM)) but with the addition of 10% human serum.

rabbit skeletal myosin = assay: Myosin inhibition assay (rbskMF pCa 6 IC50); assay type: biochemical; conditions: cardiac vs rabbit skeletal myofibrils
Text: Myosin inhibition assay (rbskMF pCa 6 IC50 (μM))
Inhibition of the enzymatic activity of rabbit skeletal myosin associated with the release of ADP (adenosine diphosphate) at the calcium concentrate that achieves a 50% activation of the rabbit skeletal myofibril system. The procedure was the same as that of bovin cardiac myosin inhibition assay (bcMF pCa 6 IC50 (μM)) by replacing bovine cardiac myofibril with rabbit skeletal myofibril.

physchem = conditions: pH 7.4, aqueous buffer, kinetic from dmso stock
Procedure: After shaking at room temperature for 1.5 h, the mixture was filtered under vacuum through a 96-well filter plate, which was pre-washed with 100 μL of 70% ethanol per well. Subsequently, 70 μL of the filtrate was added into a well in a 96-well reading plate, which was pre-loaded with 70 μL of DMSO per well. The concentration of the sample in a well was determined on the basis of the intergration on LC with UV detection as compared to the standard curve of each compound established in DMSO.

T1 sequence (Q9BE39 whole entry): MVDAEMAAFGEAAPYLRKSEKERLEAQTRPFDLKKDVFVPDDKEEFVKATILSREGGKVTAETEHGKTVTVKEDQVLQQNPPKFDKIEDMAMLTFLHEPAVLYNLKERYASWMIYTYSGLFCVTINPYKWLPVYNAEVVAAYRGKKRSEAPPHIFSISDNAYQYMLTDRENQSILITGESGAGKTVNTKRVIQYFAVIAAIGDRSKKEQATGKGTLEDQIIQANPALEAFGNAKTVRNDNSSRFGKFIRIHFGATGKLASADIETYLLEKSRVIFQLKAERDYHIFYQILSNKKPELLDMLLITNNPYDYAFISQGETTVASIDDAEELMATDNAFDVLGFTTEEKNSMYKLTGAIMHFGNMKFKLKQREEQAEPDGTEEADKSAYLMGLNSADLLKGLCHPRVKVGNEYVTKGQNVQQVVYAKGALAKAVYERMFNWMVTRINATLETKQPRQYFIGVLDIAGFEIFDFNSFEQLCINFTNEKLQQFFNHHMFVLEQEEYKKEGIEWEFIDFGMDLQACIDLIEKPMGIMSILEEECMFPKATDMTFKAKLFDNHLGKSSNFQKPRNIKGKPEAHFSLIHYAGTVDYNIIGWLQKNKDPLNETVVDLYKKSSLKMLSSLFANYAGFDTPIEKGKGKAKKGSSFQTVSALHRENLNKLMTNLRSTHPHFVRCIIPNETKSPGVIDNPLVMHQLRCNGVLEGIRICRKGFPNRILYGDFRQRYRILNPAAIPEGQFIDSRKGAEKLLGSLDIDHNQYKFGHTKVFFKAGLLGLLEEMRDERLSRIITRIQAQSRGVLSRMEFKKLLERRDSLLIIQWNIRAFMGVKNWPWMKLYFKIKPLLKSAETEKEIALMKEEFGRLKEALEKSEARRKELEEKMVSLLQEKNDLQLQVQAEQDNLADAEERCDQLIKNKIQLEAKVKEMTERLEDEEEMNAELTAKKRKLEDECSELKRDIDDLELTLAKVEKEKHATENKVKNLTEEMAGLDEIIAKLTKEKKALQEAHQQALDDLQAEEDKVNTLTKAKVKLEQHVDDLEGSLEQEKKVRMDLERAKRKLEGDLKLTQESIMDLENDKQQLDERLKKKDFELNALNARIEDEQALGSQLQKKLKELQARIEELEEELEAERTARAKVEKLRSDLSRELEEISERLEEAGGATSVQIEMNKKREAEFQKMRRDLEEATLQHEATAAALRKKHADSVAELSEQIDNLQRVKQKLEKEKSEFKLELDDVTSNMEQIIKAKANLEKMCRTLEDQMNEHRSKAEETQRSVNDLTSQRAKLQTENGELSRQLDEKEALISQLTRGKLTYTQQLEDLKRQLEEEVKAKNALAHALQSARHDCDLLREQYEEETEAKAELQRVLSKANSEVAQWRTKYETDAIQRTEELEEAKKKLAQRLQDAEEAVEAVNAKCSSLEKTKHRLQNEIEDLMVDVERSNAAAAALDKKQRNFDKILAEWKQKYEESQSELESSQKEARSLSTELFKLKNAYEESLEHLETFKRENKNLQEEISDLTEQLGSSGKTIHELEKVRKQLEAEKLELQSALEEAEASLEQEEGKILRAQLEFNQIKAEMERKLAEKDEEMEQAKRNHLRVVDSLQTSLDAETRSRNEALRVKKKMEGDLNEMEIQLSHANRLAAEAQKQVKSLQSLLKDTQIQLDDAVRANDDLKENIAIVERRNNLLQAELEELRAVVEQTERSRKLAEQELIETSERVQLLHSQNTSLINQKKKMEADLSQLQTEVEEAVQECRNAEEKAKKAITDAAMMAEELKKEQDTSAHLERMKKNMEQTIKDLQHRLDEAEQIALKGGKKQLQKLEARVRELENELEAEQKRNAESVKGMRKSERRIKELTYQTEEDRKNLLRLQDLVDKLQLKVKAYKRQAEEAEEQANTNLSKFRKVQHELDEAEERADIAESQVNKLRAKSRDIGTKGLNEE
T1 sequence (P85100 whole entry partner): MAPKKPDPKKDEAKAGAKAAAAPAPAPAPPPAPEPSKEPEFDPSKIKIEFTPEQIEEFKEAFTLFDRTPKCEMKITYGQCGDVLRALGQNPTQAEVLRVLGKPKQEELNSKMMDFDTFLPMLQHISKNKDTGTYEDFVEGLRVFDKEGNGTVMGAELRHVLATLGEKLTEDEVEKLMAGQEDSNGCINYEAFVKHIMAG
T1 sequence (Q3SZE5 whole entry partner): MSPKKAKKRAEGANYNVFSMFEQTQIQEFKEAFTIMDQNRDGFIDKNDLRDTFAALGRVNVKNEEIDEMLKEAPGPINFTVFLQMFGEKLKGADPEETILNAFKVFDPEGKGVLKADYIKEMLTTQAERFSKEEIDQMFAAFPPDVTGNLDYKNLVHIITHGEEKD

Row | SMILES | pIC50 (bovine cardiac myosin [1]; read-out: bcMF pCa_6 IC50 MEAN) | % GSH-adduct (+NADPH, +GSH) relative to parent (−NADPH, −GSH) ([2]; human liver microsomes, 30 μM, 60 min) | Glutathione Adduct Detection in Human Liver Microsome Incubations (single measurement) [2] | Glutathione Adduct Detection in Human Liver Microsome Incubations, Average (triple measurements) [2] | pIC50 (bovine cardiac myosin [3]) | Cardiac selectivity ratio vs rbskMF pCa 6 IC50 (rabbit skeletal myosin) | pIC50 (bovine cardiac myosin [1]; read-out: bcMF pCa 6 IC50) | solubility kinetic at 1.5 h (physchem) [µM]
1 | O=c1[nH]c2c(c(=O)n1C1CCOCC1)C[C@H](F)[C@H](c1cc(CO)ccc1F)N2 | 6.11 |  |  |  |  |  |  | 
2 | O=c1[nH]c2c(c(=O)n1C1CCOCC1)C[C@H](F)[C@H](c1cccc(F)c1)N2 [Compound 1, (6S,7S)-6-fluoro-7-(3-fluorophenyl)-3-(tetrahydro-2H-pyran-4-yl)-5,6,7,8-tetrahydropyrido[2,3-d]pyrimidine-2, 4(1H, 3H)-dione] | 5.52 | Not Detected | Not Detected | Not Detected | 5.43 | 7.38 | 5.52 | 
3 | O=c1[nH]c2c(c(=O)n1C1CCOCC1)C[C@@H](F)[C@H](c1cccc(F)c1)N2 [Compound 2, (6R,7S)-6-fluoro-7-(3-fluorophenyl)-3-(tetrahydro-2H-pyran-4-yl)-5,6,7,8-tetrahydropyrido[2,3-d]pyrimidine-2,4(1H, 3H)-dione] | 5.67 |  | Not Detected | Not Detected | 5.51 | 10.71 | 5.67 | 
4 | Cc1ccc(F)c([C@@H]2Nc3[nH]c(=O)n(C4CCOCC4)c(=O)c3C[C@H]2F)c1 [Compound 4, (6R,7S)-6-fluoro-7-(2-fluoro-5-methylphenyl)-3-(tetrahydro-2H-pyran-4-yl)-5,6,7,8-tetrahydropyrido[2,3-d]pyrimidine-2,4(1H, 3H)-dione] | 6.43 |  | Not Detected | Not Detected |  |  |  | 
5 | Cc1ccc(F)c([C@H]2Nc3[nH]c(=O)n(C4CCOCC4)c(=O)c3C[C@H]2F)c1 [Compound 5, (6R,7R)-6-fluoro-7-(2-fluoro-5-methylphenyl)-3-(tetrahydro-2H-pyran-4-yl)-5,6,7,8-tetrahydropyrido[2,3-d]pyrimidine-2,4(1H, 3H)-dione] | 4.68 |  | Not Detected | Not Detected |  |  |  | 
6 | Cc1ccc(F)c([C@H]2Nc3[nH]c(=O)n(C4CCOCC4)c(=O)c3C[C@@H]2F)c1 [Compound 6, (6S,7R)-6-fluoro-7-(2-fluoro-5-methylphenyl)-3-(tetrahydro-2H-pyran-4-yl)-5,6,7,8-tetrahydropyrido[2,3-d]pyrimidine-2,4(1H,3H)-dione] | 4.58 |  | Not Detected | Not Detected |  |  |  | 
7 | C#Cc1ccc(F)c([C@@H]2Nc3[nH]c(=O)n(C4CCOCC4)c(=O)c3C[C@@H]2F)c1 [Compound 7] | 6.27 |  |  |  |  |  |  | 
8 | O=c1[nH]c2c(c(=O)n1C1CCOCC1)C[C@@H](F)[C@H](c1ccccc1F)N2 [Compound 8] | 5.84 |  | Not Detected | Not Detected |  |  |  | 
9 | O=c1[nH]c2c(c(=O)n1C1CCOCC1)C[C@H](F)[C@H](c1ccccc1F)N2 [Compound 9] | 5.25 |  | Not Detected | Not Detected |  |  |  | 
10 | COc1ccc(F)c([C@@H]2Nc3[nH]c(=O)n(C4CCOCC4)c(=O)c3C[C@@H]2F)c1 [Compound 10] | 5.99 |  | Not Detected | Not Detected |  |  |  | 
11 | COc1ccc(F)c([C@@H]2Nc3[nH]c(=O)n(C4CCOCC4)c(=O)c3C[C@H]2F)c1 [Compound 11] | 6.31 |  | Not Detected | Not Detected |  |  |  | 
12 | O=c1[nH]c2c(c(=O)n1C1CCOCC1)C[C@@H](F)[C@@H](c1cccc(F)c1)N2 [Compound 12] | 4.64 |  | Not Detected | Not Detected |  |  |  | 
13 | COC(=O)[C@H]1[C@H]2C[C@@H]3c4[nH]c5cc(OC)ccc5c4CCN3C[C@H]2C[C@@H](OC(=O)c2cc(OC)c(OC)c(OC)c2)[C@@H]1OC [Reserpine] |  |  |  |  |  |  |  | < 15
